Results: US6346258B1, “Physiological combination of active substances to enhance the skin's defenses against noxious agents” (priority 1997, dated 2002)

Test system: chorioallantoic membrane
Experiment: hen's egg test on the chorioallantoic membrane (HET-CAM): protective effect against the irritant 2% sodium dodecylsulfate
Set-up: species or system hen's eggs, American White Leghorn (Shaver Starcross 288)
Conditions: for protective effect (in words): applied 5 min before 2% sodium dodecylsulfate, compared to distilled water, NaCl 0.05/0.5/1.0%, CaCl2 0.05/0.5/5%, sorbitol 0.01/0.1/1% by weight; for Response (x) after 30 s / Response (x) after 2 min / Response (x) after 5 min: rating 0 (no response) to 7 (coagulation), 0.2 ml aqueous test substance, 5 min later 0.2 ml 2% sodium dodecylsulfate; for Response (x) after 30 s: read after 30 s; for Response (x) after 2 min: read after 2 min; for Response (x) after 5 min: read after 5 min
Protocol: Evidence of the activity in terms of enhancing the skin's defenses against noxious agents was furnished in a hen's egg test on the chorioallantoic membrane (HET-CAM), an established predictional test for detecting the irritation potency for the skin and mucosa. For testing, eggs of the race “American White Leghorn” ([…] 288) were employed. The eggs were incubated for 9 d (start of incubation=day 1) in a small-size motor incubator having an automatic turning over device and an automatic moisturizing control (type […] GmbH) at 37±1° C. and 65±5% of relative humidity. At day 9, the eggs were transilluminated for detecting fertilization, the non-fertilized eggs were sorted out, the remaining eggs were placed upright with the blunt pole (air bubble) up and incubated for another 24 h without turning over. At day 10, the egg pole was removed with fine scissors and tweezers, and the chorioallantoic membrane exposed. The following items were tested: irritant effect of the combination of active substances and its components protective effect Thus, 0.2 ml each of the aqueous solution of the test substance was applied, and after an interval of 5 min, 0.2 ml of a 2% solution of the irritant sodium dodecylsulfate was applied. The outcome of the response was compared to the effect obtained with water (placebo) according to the following rating: 0 no response 1 hyperemia-slight 2 hyperemia-medium 3 hyperemia-strong 4 hemorrhage-isolated 5 hemorrhage-frequent 6 hemorrhage-massive 7 coagulation […]

Compound | protective effect (in words) | Response (x) after 30 s | Response (x) after 2 min | Response (x) after 5 min
N#C[S-].[Na+] [Comp. 2, NaSCN] | display a skin protective activity | 2.8 | 3.1 | 3.8
[Ca+2].[Cl-].[Cl-] [CaCl2, calcium chloride] | did not display any protective effects | – | – | –
OC[C@@H](O)[C@@H](O)[C@H](O)[C@@H](O)CO [sorbitol] | did not display any protective effects | – | – | –
[Cl-].[Na+] [NaCl, sodium chloride] | did not display any protective effects | – | – | –
NC(N)=O [Comp. 3, urea] | display a skin protective activity | 2.8 | 3.6 | 4.0
